From US6512000B1, “Aminocarbonyl-substituted benzimidazoles having tryptase-inhibitory activity” (Boehringer Ingelheim Pharma KG, priority 1999, dated 2003)
Where a name gives a salt, the structure may show the parent alone.

system: not given; test: not given; settings: not given

Compound	melting point [°C]
CN(C)CCN(C)C(=O)c1ccc2c(c1)nc(CCc1ccc(C(=N)N)cc1)n2C (as salt: hydrochloride) [Example 3, 2-[2-(4-Amidinophenyl)-ethyl]1l-methyl-benzimidazol-5-yl-carboxylic Acid-N-[2-(N,N-dimethylamino)-ethyl]-N-methyl-amide-dihydrochlonide]	> 220
CN(Cc1cccnc1)C(=O)c1ccc2c(c1)nc(CCc1ccc(C(=N)N)cc1)n2C (as salt: hydrochloride) [Example 1, 2-[2-(4-Amidinophenyl)ethyl]-1-methyl-benzimidazol-5-yl-carboxylic Acid-N-(pyridin-3-yl-methyl)-N-methyl-amide-hydrochloride]	> 220
Cn1c(CCc2ccc(C(=N)N)cc2)nc2cc(C(=O)N(CCC(=N)N)CCc3ccccc3)ccc21 (as salt: hydrochloride) [Example 24, 2-[2-(4-Amidinophenyl)-ethyl]-1-methyl-benzimidazol-5-yl-carboxylic Acid-N-(2-amidinoethyl)-N-(2-phenylethyl)-amide-dihydrochloride]	185 to 190

Other lines, results leading:

melting point [°C]	Compound
> 220	Cl.Cl.Cl.Cn1c(CCc2ccc(CN)cc2)nc2cc(C(=O)NCCNc3ccccc3)ccc21
165	Cn1c(CCc2ccc(C(=N)N)cc2)nc2cc(C(=O)NC(Cc3ccc(C(=N)N)cc3)C(=O)O)ccc21 (stereo not shown) [Example 30, 2-{2-[2-(4-Amidinophenyl)-ethyl]-1-methyl-benzimidazol-5-yl-carbonylamino}-3-(4-amidinophenyl)-propionic Acid-diformate]
> 220	Cn1c(CCc2ccc(C(=N)N)cc2)nc2cc(C(=O)N(CCC(=N)N)Cc3cnc4ccccc4c3)ccc21 (as salt: hydrochloride) [Example 8, 2-[2-(4-Amidinophenyl)-ethyl]-1-methyl-benzimidazol-5-yl-carboxylic Acid-N-(2-amidinoethyl)-N-(quinolin-3-yl-methyl)-amide-dihydrochloride]

target: T1, rh beta tryptase (Homo sapiens, UniProt P20231); test: Tryptase inhibition test (cleavage of N-p-tosyl-Gly-Pro-Lys-para-nitroaniline, p-nitroaniline measured at 405 nm); assay type: biochemical; settings: concentration at which 50% of the tryptase enzyme activity is inhibited; substrate 0.6 mM, pH 7.4, 37° C.
T1 construct: purchased Promega
Summary of the method: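 Recombinant human beta tryptase (0.91 U/ml) in 100 mM Tris HCl pH 7.4 with 5 mM calcium and 100 mg/ml heparin; compounds pre-incubated 5 min, then 0.6 mM tosyl-Gly-Pro-Lys-pNA added, 5 min at 37 °C. p-Nitroaniline read at 405 nm; % inhibition at 10 μM, IC50 determined when inhibition exceeded 70%.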

T1 sequence (P20231 31-275): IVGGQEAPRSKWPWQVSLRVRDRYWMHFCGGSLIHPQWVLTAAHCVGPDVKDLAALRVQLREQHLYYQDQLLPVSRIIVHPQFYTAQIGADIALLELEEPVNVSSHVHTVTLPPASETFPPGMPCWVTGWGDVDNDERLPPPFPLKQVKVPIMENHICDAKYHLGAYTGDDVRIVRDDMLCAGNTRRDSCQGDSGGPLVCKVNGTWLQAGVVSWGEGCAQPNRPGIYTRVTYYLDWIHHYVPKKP

IC50 [nM]	Compound
335	CCOCCCn1c(CCc2ccc(C(=N)N)cc2)nc2cc(C(=O)N(Cc3ccc(CN)cc3)Cc3ccccc3F)ccc21 [Example 214, 2-[2-(4-amidinophenyl)ethyl]-1-(3-ethoxypropyl)-benzimidazol-5-yl-carboxylic acid-N-[4-(amino-methyl)-benzyl]-N-(2-fluorobenzyl)-amide]

same assay, conditions: inhibition of rh beta tryptase at 10 μM test substance; substrate N-p-tosyl-Gly-Pro-Lys-para-nitroaniline 0.6 mM, pH 7.4, 37° C., 5 minutes

% Inhibition (10 μM) [%]	inhibition at 10 µM [%]	Compound
51		2-[2-(4-amidinophenyl)ethyl]-1-{3-[4-(2-methylphenyl)-piperazin-1-yl]-propyl}-benzimidazol-5-yl-carboxylic acid-N-[4-(amino-methyl)-benzyl]-N-(2-pyridyl)-amide [Example 128]
	53	N=C(N)c1ccc(CCc2nc3cc(C(=O)N(Cc4ccc(CN)cc4)Cc4ccc5ccccc5c4)ccc3n2CCC2CCCCC2)cc1 [Example 233, 2-[2-(4-amidinophenyl)ethyl]-1-(2-cyclohexylethyl)-benzimidazol-5-yl-carboxylic acid-N-[4-(amino-methyl)-benzyl]-N-(2-naphthylmethyl)-amide]
	54	CCOCCCn1c(CCc2ccc(C(=N)N)cc2)nc2cc(C(=O)N(Cc3ccc(CN)cc3)Cc3ccccc3F)ccc21 [Example 214, 2-[2-(4-amidinophenyl)ethyl]-1-(3-ethoxypropyl)-benzimidazol-5-yl-carboxylic acid-N-[4-(amino-methyl)-benzyl]-N-(2-fluorobenzyl)-amide]
	58	CCCCN(CCCC)CCCn1c(CCc2ccc(C(=N)N)cc2)nc2cc(C(=O)N(Cc3ccc(CN)cc3)Cc3cccc(OC)c3)ccc21 [Example 71, 2-[2-(4-amidinophenyl)ethyl]-1-(3-di-n-butylaminopropyl)-benzimidazol-5-yl-carboxylic acid-N-[4-(amino-methyl)-benzyl]-N-(3-methoxybenzyl)-amide]
67		CCOCCCn1c(CCc2ccc(C(=N)N)cc2)nc2cc(C(=O)N(Cc3ccc(Cl)cc3)Cc3ccc(CN)cc3)ccc21 [Example 182, 2-[2-(4-amidinophenyl)ethyl]-1-(3-ethoxypropyl)-benzimidazol-5-yl-carboxylic acid-N-[4-(amino-methyl)-benzyl]-N-(4-chlorbenzyl)-amide]

Compound	% Inhibition (10 μM) [%]	inhibition at 10 µM [%]
2-[2-(4-amidinophenyl)ethyl]-1-(tetrahydrofuran-2-yl-methyl)-benzimidazol-5-yl-carboxylic acid-N-[4-(amino-methyl)-benzyl]-N-(2-pyridyl)-amide [Example 130]	77	
